Where a name gives a salt, the structure may show the parent alone.
Test system: HBV
Conditions: Hepatitis B virus, HePAD38, 144 h, read-out: Cell Activity (EC50)

SMILES | EC50 [nM]
O=C(c1cc2ccccc2[nH]1)N1CCn2nc(NC3CCOC3)cc2C1 (centres unmarked) [Example 1, 5-(1H-indole-2-carbonyl)-N-(oxolan-3-yl)-4H,5H,6H,7H-pyrazolo[1,5-a]pyrazin-2-amine] | 1000 to 10000
O=C(c1cc2ccccc2[nH]1)N1CCn2nc(N[C@H]3CC[C@H](O)CC3)cc2C1 [Example 2, (1r,4r)-4-{[5-(1H-indole-2-carbonyl)-4H,5H,6H,7H-pyrazolo[1,5-a]pyrazin-2-yl]amino}cyclohexan-1-ol] | < 1000
O=C(c1cc2c(Cl)cccc2[nH]1)N1CCn2nc(NC3CCC(O)CC3)cc2C1 (centres unmarked) [Example 3, 4-{[5-(4-chloro-1H-indole-2-carbonyl)-4H,5H,6H,7H-pyrazolo[1,5-a]pyrazin-2-yl]amino}cyclohexan-1-ol] | < 1000
O=C(Nc1cc2n(n1)CCN(C(=O)c1cc3ccccc3[nH]1)C2)C1CNC1 [Example 4, N-[5-(1H-indole-2-carbonyl)-4H,5H,6H,7H-pyrazolo[1,5-a]pyrazin-2-yl]azetidine-3-carboxamide Hydrochloride] | 1000 to 10000
O=C(c1cc2ccccc2[nH]1)N1CCn2nc(NS(=O)(=O)C3CC3)cc2C1 [Example 5, N-[5-(1H-indole-2-carbonyl)-4H,5H,6H,7H-pyrazolo[1,5-a]pyrazin-2-yl]cyclopropanesulfonamide] | < 1000
CC(C)(C)OC(=O)N1CC(C(=O)Nc2cc3n(n2)CCN(C(=O)c2cc4ccccc4[nH]2)C3)C1 [Example 7, tert-butyl 3-{[5-(1H-indole-2-carbonyl)-4H,5H,6H,7H-pyrazolo[1,5-a]pyrazin-2-yl]carbamoyl}azetidine-1-carboxylate] | < 1000
CS(=O)(=O)Nc1cc2n(n1)CCN(C(=O)c1cc3ccccc3[nH]1)C2 [Example 8, N-[5-(1H-indole-2-carbonyl)-4H,5H,6H,7H-pyrazolo[1,5-a]pyrazin-2-yl]methanesulfonamide] | < 1000
CC1Cn2nc(N)cc2CN1C(=O)c1cc2c(Cl)cccc2[nH]1 (centres unmarked) [Example 9, 5-(4-chloro-1H-indole-2-carbonyl)-6-methyl-4H,5H,6H,7H-pyrazolo[15-a]pyrazin-2-amine] | < 1000
CC1Cn2nc(NC(=O)C3CCOC3)cc2CN1C(=O)c1cc2ccccc2[nH]1 (centres unmarked) [Example 10, N-[5-(1H-indole-2-carbonyl)-6-methyl-4H,5H, 6H,7H-pyrazolo[1,5-a]pyrazin-2-yl]oxolane-3-carboxamide] | < 1000
CC1Cn2nc(NC(=O)C3CCOC3)cc2CN1C(=O)c1cc2c(Cl)cccc2[nH]1 (centres unmarked) [Example 11, N-[5-(4-chloro-1H-indole-2-carbonyl)-6-methyl-4H,5H,6H,7H-pyrazolo[1,5-a]pyrazin-2-yl]oxolane-3-carboxamide] | < 1000
CC1Cn2nc(NCC3CCOC3)cc2CN1C(=O)c1cc2ccccc2[nH]1 (centres unmarked) [Example 12, 5-(1H-indole-2-carbonyl)-6-methyl-N-[(oxolan-3-yl)methyl]-4H,5H,6H,7H-pyrazolo[1,5-a]pyrazin-2-amine] | < 1000
CC1Cn2nc(NCC3CCOC3)cc2CN1C(=O)c1cc2c(Cl)cccc2[nH]1 (centres unmarked) [Example 13, 5-(4-chloro-1H-indole-2-carbonyl)-6-methyl-N-[(oxolan-3-yl)methyl]-4H,5H,6H,7H-pyrazolo[1,5-a]pyrazin-2-amine] | < 1000
CC(=O)Nc1cc2n(n1)CCN(C(=O)c1cc3ccccc3[nH]1)C2 [Example 14, N-[5-(1H-indole-2-carbonyl)-4H,5H,6H,7H-pyrazolo[1,5-a]pyrazin-2-yl]acetamide] | < 1000
O=C(c1cc2ccccc2[nH]1)N1CCn2nc(NCC3CCOCC3)cc2C1 [Example 15, 5-(1H-indole-2-carbonyl)-N-[(oxan-4-yl)methyl]-4H,5H,6H,7H-pyrazolo[1,5-a]pyrazin-2-amine] | < 1000
CC1Cn2nc(N)cc2CN1C(=O)c1cc2ccccc2[nH]1 (centres unmarked) [Example 16, 5-(1H-indole-2-carbonyl)-6-methyl-4H,5H,6H,7H-pyrazolo[1,5-a]pyrazin-2-amine] | < 1000
CCc1cccc2[nH]c(C(=O)N3CCn4nc(NCC5CCOC5)cc4C3)cc12 (centres unmarked) [Example 17, 5-(4-ethyl-1H-indole-2-carbonyl)-N-[(oxolan-3-yl)methyl]-4H,5H,6H,7H-pyrazolo[1,5-a]pyrazin-2-amine] | < 1000
O=C(Nc1cc2n(n1)CCN(C(=O)c1cc3ccccc3[nH]1)C2)C1CCOCC1 [Example 18, N-[5-(1H-indole-2-carbonyl)-4H,5H,6H,7H-pyrazolo[1,5-a]pyrazin-2-yl]oxane-4-carboxamide] | < 1000
O=C(Nc1cc2n(n1)CCN(C(=O)c1cc3c(Cl)cccc3[nH]1)C2)C1CCOC1 (centres unmarked) [Example 19, N-[5-(4-chloro-1H-indole-2-carbonyl)-4H,5H,6H,7H-pyrazolo[1,5-a]pyrazin-2-yl]oxolane-3-carboxamide] | < 1000
O=C(Nc1cc2n(n1)CCN(C(=O)c1cc3c(Cl)c(F)ccc3[nH]1)C2)C1CCOC1 (centres unmarked) [Example 20, N-[5-(4-chloro-5-fluoro-1H-indole-2-carbonyl)-4H,5H,6H,7H-pyrazolo[1,5-a]pyrazin-2-yl]oxolane-3-carboxamide] | < 1000

SMILES | EC50 [nM]
O=C(Nc1cc2n(n1)CCN(C(=O)c1cc3c(Cl)cc(F)cc3[nH]1)C2)C1CCOC1 (centres unmarked) [Example 21, N-[5-(4-chloro-6-fluoro-1H-indole-2-carbonyl)-4H,5H,6H,7H-pyrazolo[1,5-a]pyrazin-2-yl]oxolane-3-carboxamide] | < 1000
O=C(Nc1cc2n(n1)CCN(C(=O)c1cc3c(F)cc(F)cc3[nH]1)C2)C1CCOC1 (centres unmarked) [Example 22, N-[5-(4,6-difluoro-1H-indole-2-carbonyl)-4H,5H,6H,7H-pyrazolo[1,5-a]pyrazin-2-yl]oxolane-3-carboxamide] | < 1000
CCc1cc(F)cc2[nH]c(C(=O)N3CCn4nc(NC(=O)C5CCOC5)cc4C3)cc12 (centres unmarked) [Example 23, N-[5-(4-ethyl-6-fluoro-1H-indole-2-carbonyl)-4H,5H,6H,7H-pyrazolo[1,5-a]pyrazin-2-yl]oxolane-3-carboxamide] | < 1000
CCc1cccc2[nH]c(C(=O)N3CCn4nc(NC(=O)C5CCOC5)cc4C3)cc12 (centres unmarked) [Example 24, N-[5-(4-ethyl-1H-indole-2-carbonyl)-4H,5H,6H,7H-pyrazolo[1,5-a]pyrazin-2-yl]oxolane-3-carboxamide] | < 1000
O=C(c1cc2c(Cl)cccc2[nH]1)N1CCn2nc(NCC3CCOC3)cc2C1 (centres unmarked) [Example 26, 5-(4-chloro-1H-indole-2-carbonyl)-N-[(oxolan-3-yl)methyl]-4H,5H,6H,7H-pyrazolo[1,5-a]pyrazin-2-amine] | < 1000
O=C(c1cc2c(Cl)cc(F)cc2[nH]1)N1CCn2nc(NCC3CCOC3)cc2C1 (centres unmarked) [Example 27, 5-(4-chloro-6-fluoro-1H-indole-2-carbonyl)-N-[(oxolan-3-yl)methyl]-4H,5H,6H,7H-pyrazolo[1,5-a]pyrazin-2-amine] | < 1000
O=C(c1cc2c(F)cc(F)cc2[nH]1)N1CCn2nc(NCC3CCOC3)cc2C1 (centres unmarked) [Example 28, 5-(4,6-difluoro-1H-indole-2-carbonyl)-N-[(oxolan-3-yl)methyl]-4H,5H,6H,7H-pyrazolo[1,5-a]pyrazin-2-amine] | < 1000
O=C(Nc1cc2n(n1)CCN(C(=O)c1cc3ccccc3[nH]1)C2)C1CCOC1 (centres unmarked) [Example 30, N-[5-(1H-indole-2-carbonyl)-4H,5H,6H,7H-pyrazolo[1,5-a]pyrazin-2-yl]oxolane-3-carboxamide] | < 1000
O=C(c1cc2ccccc2[nH]1)N1CCn2nc(NCC3CCOC3)cc2C1 (centres unmarked) [Example 31, 5-(1H-indole-2-carbonyl)-N-[(oxolan-3-yl)methyl]-4H,5H,6H,7H-pyrazolo[1,5-a]pyrazin-2-amine] | < 1000
Nc1cc2n(n1)CCN(C(=O)c1cc3c(Cl)cccc3[nH]1)C2 [Example 32, 5-(4-chloro-1H-indole-2-carbonyl)-4H,5H,6H,7H-pyrazolo[1,5-a]pyrazin-2-amine] | < 1000
Nc1cc2n(n1)CCN(C(=O)c1cc3c(F)cc(F)cc3[nH]1)C2 [Example 33, 5-(4,6-difluoro-1H-indole-2-carbonyl)-4H,5H,6H,7H-pyrazolo[1,5-a]pyrazin-2-amine] | < 1000
Nc1cc2n(n1)CCN(C(=O)c1cc3ccccc3[nH]1)C2 [Example 34, 5-(1H-indole-2-carbonyl)-4H,5H, 6H,7H-pyrazolo[1,5-a]pyrazin-2-amine] | < 1000
O=C(c1cc2c(F)cc(F)cc2[nH]1)N1CCn2nc(NS(=O)(=O)C3CC3)cc2C1 [Example 35, N-[5-(4,6-difluoro-1H-indole-2-carbonyl)-4H,5H,6H,7H-pyrazolo[1,5-a]pyrazin-2-yl]cyclopropanesulfonamide] | < 1000
O=C(c1cc2c(Cl)c(F)ccc2[nH]1)N1CCn2nc(NS(=O)(=O)C3CC3)cc2C1 [Example 36, N-[5-(4-chloro-5-fluoro-1H-indole-2-carbonyl)-4H,5H,6H,7H-pyrazolo[1,5-a]pyrazin-2-yl]cyclopropanesulfonamide] | < 1000
O=C(c1cc2c(Cl)cccc2[nH]1)N1CCn2nc(NS(=O)(=O)C3CC3)cc2C1 [Example 37, N-[5-(4-chloro-1H-indole-2-carbonyl)-4H,5H,6H,7H-pyrazolo[1,5-a]pyrazin-2-yl]cyclopropanesulfonamide] | < 1000
O=C(c1cc2c(Cl)cc(F)cc2[nH]1)N1CCn2nc(NS(=O)(=O)C3CC3)cc2C1 [Example 38, N-[5-(4-chloro-6-fluoro-1H-indole-2-carbonyl)-4H,5H,6H,7H-pyrazolo[1,5-a]pyrazin-2-yl]cyclopropanesulfonamide] | < 1000
CCc1cc(F)cc2[nH]c(C(=O)N3CCn4nc(NS(=O)(=O)C5CC5)cc4C3)cc12 [Example 39, N-[5-(4-ethyl-6-fluoro-1H-indole-2-carbonyl)-4H,5H,6H,7H-pyrazolo[1,5-a]pyrazin-2-yl]cyclopropanesulfonamide] | < 1000
CCc1cccc2[nH]c(C(=O)N3CCn4nc(NS(=O)(=O)C5CC5)cc4C3)cc12 [Example 40, N-[5-(4-ethyl-1H-indole-2-carbonyl)-4H,5H,6H,7H-pyrazolo[1,5-a]pyrazin-2-yl]cyclopropanesulfonamide] | < 1000
O=C(Nc1cc2n(n1)CCN(C(=O)c1cc3ccccc3[nH]1)C2)C1CCNCC1 [Example 41, N-[5-(1H-indole-2-carbonyl)-4H,5H,6H,7H-pyrazolo[1,5-a]pyrazin-2-yl]piperidine-4-carboxamide Hydrochloride] | < 1000

— patent publication US20220081444A1, “6,7-DIHYDRO-4H-PYRAZOLO[1,5-A]PYRAZINE INDOLE-2-CARBOXAMIDES ACTIVE AGAINST THE HEPATITIS B VIRUS (HBV)” (AiCuris GmbH & Co. KG, priority 2018, published 2022)
